From patent US20250302080A1, “SWEETNESS AND/OR FLAVOR ENHANCER” (AJINOMOTO CO., INC., priority 2022, published 2025)

Experiments:
[1] = Sensory evaluation of sweetness intensity in sucrose solution (Experimental Examples 25-27)
Experimental: A negative control sucrose solution (0.7 wt % sucrose solution) was prepared by dissolving sucrose in filtered water.
(§1) A sensory evaluation of sweetness intensity was performed for each sample by a panel of four experts according to the following evaluation criteria.
Sweetness intensity was evaluated by 0.0 to 10.0 points based on the following reference samples (negative control (hereinafter referred to as NC) (0.0 point); reference 1 (hereinafter referred to as R1) (3.0 points), reference 2 (hereinafter referred to as R2) (5.0 points); reference 3 (hereinafter referred to as R3) (10.0 points)). The average score (rounded to two decimal places) of each expert panelist was calculated. An average score of 3.0 points or more was considered to be functional. • NC (0.0 point): 7.0 wt % sucrose solution (solvent: filtered water) • R1 (3.0 points): 7.3 wt % sucrose solution (solvent: filtered water) • R2 (5.0 points): 7.5 wt % sucrose solution (solvent: filtered water) • R3 (10.0 points): 8.0 wt % sucrose solution (solvent: filtered water)
A sensory evaluation of sweetness intensity was performed for each sample by a panel of four experts according to the same evaluation criteria as in Experimental Example 25.

[2] = Sensory evaluation of sweetness intensity in RebA solution, four reference samples (Experimental Examples 17-19)
Experimental: A negative control RebA solution (0.073 wt % RebA solution) was prepared by dissolving RebA in filtered water.
as §1
Sweetness intensity was evaluated by 0.0 to 10.0 points based on the following reference samples (negative control (hereinafter referred to as NC) (0.0 point); reference 1 (hereinafter referred to as R1) (3.2 points), reference 2 (hereinafter referred to as R2) (5.0 points); reference 3 (hereinafter referred to as R3) (10.0 points)). The average score (rounded to two decimal places) of each expert panelist was calculated. An average score of 3.0 points or more was considered to be functional. • NC (0.0 point): 0.073 wt % RebA solution (solvent: filtered water) • R1 (3.2 points): 0.073 wt % RebA solution (solvent: filtered water)+decanoic acid (10 ppb) • R2 (5.0 points): 0.077 wt % RebA solution (solvent: filtered water) • R3 (10.0 points): 0.080 wt % RebA solution (solvent: filtered water)
A sensory evaluation of sweetness intensity was performed for each sample by a panel of four experts according to the same evaluation criteria as in Experimental Example 17.

[3] = added alone, 3.0 points or more

O=C1C[C@@H](c2ccc(O)cc2)Oc2cc(O)cc(O)c21 [naringenin]
concentration at which a sweetness-enhancing effect was confirmed [1, 3]: ≥ 15 ppm
sweetness intensity ([1]; naringenin alone at 1 ppm): 1.1 points
sweetness intensity ([1]; naringenin alone at 5 ppm): 1.7 points
sweetness intensity ([1]; naringenin alone at 10 ppm): 2.6 points
sweetness intensity ([1]; naringenin alone at 15 ppm): 3.6 points
sweetness intensity ([1]; naringenin alone at 30 ppm): 4.6 points
sweetness intensity ([1]; naringenin alone at 50 ppm): 5.8 points
concentration at which a sweetness-enhancing effect was confirmed [2, 3]: ≥ 10 ppm
sweetness intensity ([2]; naringenin alone at 1 ppm): 1.8 points
sweetness intensity ([2]; naringenin alone at 5 ppm): 2.5 points
sweetness intensity ([2]; naringenin alone at 10 ppm): 3.3 points
sweetness intensity ([2]; naringenin alone at 15 ppm): 4.1 points
sweetness intensity ([2]; naringenin alone at 30 ppm): 5.0 points
sweetness intensity ([2]; naringenin alone at 50 ppm): 5.4 points
